These results are taken from US12358875B2, “N-(phenyl)-indole-3-sulfonamide derivatives and related compounds as GPR17 modulators for treating CNS disorders such as multiple sclerosis” (UCB Pharma GMBH, priority 2019, dated 2025).

Structures are written as SMILES.

The target in one test is T1, GPR17 (Homo sapiens, UniProt Q13304). The test is described as follows: Calcium mobilization functional assay (Ca2+ assay), inhibition of MDL29,951 response in CHO hGPR17. It is filed as cell-based. The conditions noted are these: CHO hGPR17, 50 nM MDL29,951 agonist; read-out: Ca^2+ assay pIC50 (converted). On the set-up: host or cells: Flp-In T-REx CHO. As to the method:
(§1) Flp-In T-REx CHO cells stably expressing human GPR17 receptor (CHO hGPR17) from Evi Kostenis' lab (Bonn University, Germany) were cultured at 37° C. in a humidified atmosphere of 5% CO2. Cells were grown in DMEM with Nutrient Mixture F-12 supplemented with hygromycin B (500 μg/ml) and blasticidin (30 μg/ml). Expression from the Flp-In locus was induced by treatment with doxycycline (1 μg/ml) for 16-20 h prior assays.
GPR17 is a G-protein coupled receptor. GPR17 activation triggers Gq-type G-protein signaling resulting in endoplasmic reticulum calcium (Ca^2+) stores release in cytosol which can be measured using Calcium 5 dye, a fluorescent indicator dye of cytosolic Ca^2+ levels. The compounds of the present invention were assessed either in the Ca^2+ assay or in the GPR17 cAMP assay, described further below.
CHO hGPR17 were defrosted and seeded at a density of 20,000 cells per well into black 384-well plates with clear bottom. Cells were incubated overnight at 37° C. in a humidified atmosphere of 5% CO2. […] Fluorescent signal relative to cytosolic Ca^2+ concentration was recorded over time at room temperature in FLIPR Tetra reader. […] Inhibitory effects of varying concentrations test compounds were measured and resulting pIC50s were determined. […]
In general terms: A change in cytosolic calcium serves as a functional read-out for many receptors and channels.
Target sequence in this assay (Q13304 29-367 limits assumed): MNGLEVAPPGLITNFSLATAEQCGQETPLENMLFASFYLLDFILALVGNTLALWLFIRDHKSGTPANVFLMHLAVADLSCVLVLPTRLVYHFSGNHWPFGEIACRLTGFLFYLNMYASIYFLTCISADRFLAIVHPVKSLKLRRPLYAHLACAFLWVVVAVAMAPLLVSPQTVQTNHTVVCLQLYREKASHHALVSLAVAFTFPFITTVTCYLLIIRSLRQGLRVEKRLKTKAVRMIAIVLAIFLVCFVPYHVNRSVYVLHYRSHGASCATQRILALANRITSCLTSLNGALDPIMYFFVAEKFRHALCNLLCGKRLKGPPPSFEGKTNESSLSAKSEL
Turning to `Cn1cc(S(=O)(=O)Nc2ccc(C#N)cc2F)c2ccc(Cl)cc21` [Example I-1, 6-chloro-N-(4-cyano-2-fluorophenyl)-1-methylindole-3-sulfonamide], the IC50 is 31.6 to 316 nM.

Turning to `COc1nc(NS(=O)(=O)c2cn(C)c3cc(Cl)ccc23)c(F)cc1Cl` [Example I-2, 6-chloro-N-(5-chloro-3-fluoro-6-methoxypyridin-2-yl)-1-methylindole-3-sulfonamide], the IC50 is 31.6 to 316 nM.

For a further test, the target named is T1, GPR17.
Assay: not given
The conditions noted are these: WO 2005/103291; cited from earlier work.
Target sequence in this assay (Q13304 whole entry, species assumed): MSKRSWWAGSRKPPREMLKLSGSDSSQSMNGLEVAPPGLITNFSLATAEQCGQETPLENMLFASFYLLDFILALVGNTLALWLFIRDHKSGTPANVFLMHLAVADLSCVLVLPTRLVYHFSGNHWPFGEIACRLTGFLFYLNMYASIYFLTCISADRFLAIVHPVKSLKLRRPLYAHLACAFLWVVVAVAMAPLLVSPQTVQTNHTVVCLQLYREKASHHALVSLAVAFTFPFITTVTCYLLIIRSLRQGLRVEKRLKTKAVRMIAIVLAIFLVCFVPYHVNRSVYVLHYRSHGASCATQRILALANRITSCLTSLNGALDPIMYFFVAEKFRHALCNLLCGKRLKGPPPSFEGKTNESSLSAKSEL
In the case of `NCC(=O)CCC(=O)O` [Example 5-ALA, 5 amino levulinic acid], the “amounts needed in the assays (GPR17 activation)” value was “three digit micromolar range”.

Take `NCc1[nH]cc(CCC(=O)O)c1CC(=O)O` [PBG, porphobilinogen]: the “amounts needed in the assays (GPR17 activation)” value is “mM range”.

A further test addresses T1, GPR17. The test is described as follows: cAMP accumulation functional assay (HTRF), Schild analysis against MDL29,951 in CHO hGPR17. Set-up: host or cells: Flp-In T-REx CHO. The conditions noted are these: CHO hGPR17, Schild analysis vs MDL29,951, 5 μM forskolin; read-out: cAMP assay pA2 (converted). It is filed as cell-based. How it is done:
as §1
GPR17 activation can also recruit Gi-type G-protein signaling, resulting in a decrease of intracellular cyclic adenosine monophosphate (cAMP). Intracellular cAMP changes can be measured using the HTRF cAMP dynamic assay kit from CisBio (Codolet, France). Using homogenous time-resolved fluorescence technology (HTRF), the assay is based on competition between native cAMP produced by cells and cAMP labelled with the dye d2. The tracer binding was determined by an anti-cAMP antibody labeled with cryptate.
CHO hGPR17 were detached with PBS containing EDTA and dispatched in black 384-well plates with 5,000 cells per well. Cells were first incubated for 30 minutes at room temperature in HBSS Hepes (pH 7.4) containing vehicle or varying concentrations of test GPR17 antagonist/inverse agonist compounds. Then, a dose response curve of MDL29,951 GPR17 agonist (typically from 10^−5M to 10^−10M) was added on vehicle and on each test GPR17 antagonist/inverse agonist compound concentration in a final volume of 20 μL HBSS Hepes buffer (pH 7.4) containing 1% DMSO, 5 μM forskolin and 0.1 mM IBMX. After 60 minutes incubation at room temperature, the reaction is terminated and the cells lysed by adding the d2 detection reagent and the cryptate reagent in 10 μL lysis buffer each according to manufacturer's instructions. After 60 minutes incubation, changes in cAMP concentrations are measured according to manufacturer's instructions using an Envision plate reader with laser excitation. All incubations were performed in duplicate. Data was analyzed using GraphPad Prism software using the 4-parameter logistic equation to measure MDL29,951 pEC50s in absence and presence of GPR17 antagonist/inverse agonist test compounds. Dose ratio (DR) were plotted against antagonist concentrations and Schild analysis provided estimated affinity pA2 of GPR17 antagonist/inverse agonist test compounds.
The activities of the Example compounds tested are depicted in the table below. The activity ranges A, B and C refer to pA2 values in the cAMP assay as follows: “A”: pA2 6.5≤x<7.5, “B”: pA2 7.5≤x<8.5, “C”: 8.5≤pA2.
Target sequence in this assay (Q13304 29-367 limits assumed): as the sequence (Q13304 29-367 limits assumed) above
Take `O=S(=O)(Nc1cc(F)c(Br)cc1F)c1cn(CCO)c2nc(Cl)ccc12` [Example I-30, N-(4-bromo-2,5-difluorophenyl)-6-chloro-1-(2-hydroxyethyl)pyrrolo[2,3-b]pyridine-3-sulfonamide]: the Kb is 3.16 to 31.6 nM.

Take `COc1nc(Cl)c(F)cc1NS(=O)(=O)c1cn(C)c2cc(Cl)ccc12` [Example I-31, 6-chloro-N-(6-chloro-5-fluoro-2-methoxypyridin-3-yl)-1-methylindole-3-sulfonamide]: the Kb is 3.16 to 31.6 nM.

For `COc1nc(Cl)c(F)cc1NS(=O)(=O)c1cn(CC(F)F)c2cc(Cl)ccc12` [Example I-32, 6-chloro-N-(6-chloro-5-fluoro-2-methoxypyridin-3-yl)-1-(2,2-difluoroethyl)indole-3-sulfonamide], the Kb was 3.16 to 31.6 nM.

For `COc1nc(Cl)c(F)cc1NS(=O)(=O)c1cn(CC(O)CF)c2cc(Cl)ccc12` (centres unmarked) [Example I-33, 6-chloro-N-(6-chloro-5-fluoro-2-methoxypyridin-3-yl)-1-(3-fluoro-2-hydroxypropyl)indole-3-sulfonamide], the Kb was at most 3.16 nM.

For `COc1nc(Cl)c(F)cc1NS(=O)(=O)c1cn(CC(O)CO)c2cc(Cl)ccc12` (centres unmarked) [Example I-34, 6-chloro-N-(6-chloro-5-fluoro-2-methoxypyridin-3-yl)-1-(2,3-dihydroxypropyl)indole-3-sulfonamide], the Kb is 3.16 to 31.6 nM.

As for `COc1nc(OC(F)F)c(F)cc1NS(=O)(=O)c1cn(CCO)c2nc(Cl)ccc12` [Example I-35, 6-chloro-N-[6-(difluoromethoxy)-5-fluoro-2-methoxypyridin-3-yl]-1-(2-hydroxyethyl)pyrrolo[2,3-b]pyridine-3-sulfonamide], the Kb was at most 3.16 nM.

Regarding `[N-]=[N+]=NCCn1cc(S(=O)(=O)Nc2cc(F)c(Br)cc2F)c2ccc(Cl)cc21` [Example I-36, 1-(2-azidoethyl)-N-(4-bromo-2,5-difluorophenyl)-6-chloroindole-3-sulfonamide], the Kb is 31.6 to 316 nM.
